In patent publication EP2878677A1, “Activators of protein phosphatase 5” (Deutsches Zentrum für Neurodegenerative Erkrankungen e.V. …, priority 2013, dated 2015):

Tested on: human tau-P301L-transfected mice brains
Assay: human tau-P301L-transfected mice treated via mini-osmotic pumps, immunohistochemistry of the hippocampus
Format: in vivo, C57BL/6 mice
Experimental: All protocols for animal experiments described in this study were performed according to the German laws for animal experimentation (Tierschutzgesetz) from 1998. The study was approved by the authorities of the State of Saxony-Anhalt (Landesverwaltungsamt) and performed according to institutional guidelines. Animals were maintained under constant environmental conditions with ambient temperature of 20 ± 2 °C and relative humidity of 50%. They were housed with a 12 hour light-dark cycle and given food and water ad libitum. Adult wild-type C57BL/6 mice (10 weeks old) obtained from Charles River Laboratories (Sulzfeld, Germany) were used for all studies. 4% halothane in a mixture of nitrous oxide/oxygen (ratio 70:30) was used for the induction of anesthesia and 1 to 1.5% halothane for the maintenance of anesthesia. Halothane was applied via a nose cone. Throughout all surgical procedures, the animal's body temperature was kept at 37°C using a thermostatically controlled heating blanket. Intracerebral injection of viral particles into the hippocampus of the right brain hemisphere of anesthetized mice was performed stereotactically at coordinates 2.6 mm posterior to bregma, lateral 1.0 mm and ventral 2.0 mm. 2 µl of high titer viral suspension were injected with a fixed syringe (Hamilton Company, Reno, NV, USA). After injection at a rate of 0.2 µl/min, the cannula was left in place for further 30 sec before slow withdrawal. After surgery, the wound was sutured.
Mini-osmotic pumps (Model 2006, Alzet, Palo Alto, CA, USA) were implanted intraperitoneal (ip) through a midline incision immediately after P301L transfection. During implantation, animals remained under halothane anesthesia (details above). The pumps (internal volume: 245.6 µl) were loaded with one of the following substances: P5SA-2, P5SA-3, P5SA-4, P5SA-5 or corresponding vehicle solution (DMSO/polyethylene glycol 400 (50:50 w/w) without drug. P5SA (final concentration 1 mg/kg/day) or vehicle infusion (ip) started immediately after transplantation with a continuous flow rate of 0.15 µl/h and was maintained for 6 weeks.
6 weeks after P301L transfection, mice were anesthetized by ip injection of 4% chloral hydrate in PBS, transcardially perfused with ice-cold PBS and fixed with 4% paraformaldehyde in 0.1 M PBS. Immediately after fixation, animals were decapitated. The brains were removed and post-fixed in the same fixative overnight. Fixed brains were placed in a mouse brain matrix (Activational Systems Inc., Warren, USA) and transected into defined coronal brain slices (thickness 1 mm) along the anterior-posterior axis. After incubation in 30% sucrose containing PBS for cryoprotection, 20 µm-thick frontal sections, comprising the hippocampal formation, were cut using a cryostat (Microm International GmbH, Walldorf, Germany). For immunohistochemical staining, sections were washed in 0.1 M PBS. Free-floating sections were permeabilized with 0.2% Triton X-100 in PBS containing 10% normal horse serum for 30 min. After washing with PBS, unspecific antibody binding was blocked by 10% normal horse serum for 30 min, followed by a further wash in 0.1 M PBS. Then, sections were incubated with primary antibodies. For immunofluorescence staining, primary antibodies directed against total tau (human plus endogenous mice tau, K9JA) and MAP2 (microtubule-associated protein 2), respectively, were applied simultaneously. Alternatively, the primary antibodies AT8 (human phospho-tau, AT8 (Ser202/Thr205) phosphorylation site) and the human tau-specific primary antibody tau-13 were used individually. After overnight incubation at 4°C, sections were rinsed with 0.1 M PBS. Sections exposed to the primary antibody combination K9JA/MAP2 were incubated with the complementary secondary antibodies goat anti-rabbit IgG Alexa Fluor 488 and goat anti-mouse IgG Alexa Fluor 594. AT8 and tau-13 were visualized with goat anti-mouse IgG Alexa Fluor 594. […]

[1] = 1 mg/kg/day, continuous ip infusion for 6 weeks

Compound | phosphorylation of human tau-P301L at its AT8 epitope (Ser202/Thr205) [1] | tau-P301L-dependent pattern of neuronal degeneration in the hippocampal formation [1] | numbers of AT8-positive perikarya of CA3 pyramidal neurons per hippocampal slice (1 mg/kg/day ip for 6 weeks, mean ± SEM, vehicle 7.0 ± 2.0, P< 0.0001) | tau-P301L-dependent localization of total tau signals in the perikarya of CA1 and CA3 pyramidal neurons [1]
COc1ccc(-c2nc(Cc3ccc(Cl)cc3)no2)cc1OC [P5SA-2] | diminished | not observed | – | –
CN1CCc2c(sc(-n3cccc3)c2CNC(=O)NC23CC4CC(CC(C4)C2)C3)C1 [P5SA-3] | diminished | not observed | – | –
O=c1cc2nc(-c3ccc(F)cc3)nc(SCc3ccc(Br)cc3)n2[nH]1 [P5SA-4] | diminished | not observed | – | –
CNC(=O)c1c(NC(=O)COCC(=O)Nc2sc3c(c2C(=O)NC)CCC3)sc2c1CCC2 [P5SA-5] | remarkably reduced | decreased | 2.2 ± 1.4 | remained unaffected
